# Counter-ions that a name gives are not always drawn.
# Legend:
# [1] = target: T1, trypsin (derived from bovine pancreas) (Bos taurus, UniProt P00760); assay: Trypsin inhibitory activity (BAPNA absorbance); assay type: biochemical; settings: substrate BAPNA, pH 8.0, 30° C.
# T1 construct: trypsin (derived from bovine pancreas); from tissue; host or cells: bovine pancreas
# T1 sequence (P00760 24-246): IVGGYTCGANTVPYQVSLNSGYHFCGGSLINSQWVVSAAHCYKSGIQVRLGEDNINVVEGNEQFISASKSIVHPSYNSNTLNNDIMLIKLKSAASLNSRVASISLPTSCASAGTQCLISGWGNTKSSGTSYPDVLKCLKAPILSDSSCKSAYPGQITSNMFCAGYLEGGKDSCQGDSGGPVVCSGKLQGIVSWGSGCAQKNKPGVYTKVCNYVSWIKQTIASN
# Procedure: To 0.2 M HEPES/sodium hydroxide buffer (pH 8.0, 100 μl) and distilled water (640 μl) were added the subject compound in various concentrations or water (10 μl) and a 80 mU/ml trypsin (derived from bovine pancreas) solution (50 μl), and the resulting mixture was allowed to preincubation at 30° C. for a minute. To the resulting reaction mixture, 2.5 mM BAPNA (200 μl) was added, incubation was made at 30° C., and the absorbance at 405 nm was determined. The absorbance in the absence of the subject compound was defined as 100% to obtain the percentage (%) in the existence of the sample compound and calculate the value of IC50.
# [2] = target: T2, Tryptase purified from the human lungs; assay: Tryptase inhibitory activity (Boc-Phe-Ser-Arg-MCA fluorescence); assay type: biochemical; settings: human lung tryptase, pH 7.5, 37° C., 5 minutes incubation, substrate Boc-Phe-Ser-Arg-MCA
# T2 construct: Tryptase was purified from the human lungs in accordance with the method of T. J. Smithetal. described in J. Biol. Chem., 259, 11046 (1984)
# Procedure: Tryptase was purified from the human lungs in accordance with the method of T. J. Smithetal. described in J. Biol. Chem., 259, 11046 (1984). The enzyme purified in the concentration of 25.7 U/ml was diluted 10 times with 100 mM Tris/hydrochloride buffer (pH 7.5) at use. The enzyme solution prepared above (5 μl) was mixed with 100 mM Tris/hydrochloride buffer (pH 7.5, 500 μl) and the aqueous solution of the subject compound in various concentrations or water (5 μl), and the resulting mixture was incubated at 37° C. for 5 minutes. To the reaction mixture was added 20 mM Boc-Phe-Ser-Arg-MCA (2.5 μl), and elevation in fluorescence for a minute was determined at Ex=370 nm, Em=460 nm. The elevation in fluorescence in the absence of the subject compound was defined as 100% to obtain the percentage (%) in the existence of the sample compound and calculate the value of IC50.
# [3] = target: T3, PLA2 (derived from pig pancreas) (Sus scrofa, UniProt P00592); assay: PLA2 inhibitory activity (10PY-PC fluorescence); assay type: biochemical; settings: pig pancreas PLA2, substrate 10PY-PC, pH 7.5
# T3 construct: PLA2 (derived from pig pancreas); from tissue; host or cells: pig pancreas
# Procedure: A reaction mixture was prepared which contained 50 mM Tris/hydrochloride buffer (pH 7.5, 874 μl: 100 mM sodium chloride and 1 mM EDTA contained), 1 M calcium chloride (6 μl), 1% bovine serum albumin (10 μl) and 2.5 mM 10PY-PC (10 μl). To the reaction mixture were added the subject compound in various concentrations or water (50 μl) and a 10 mU/ml PLA2 (derived from pig pancreas) solution (50 μl), and the intensity of fluorescence was determined at Ex=345 nm and Em=396 nm. The intensity of fluorescence in the absence of the subject compound was defined as 100% to obtain the percentage (%) In the existence of the sample compound and calculate the value of IC50.
# [4] = test system: carbon tetrachloride-induced rat chronic hepatopathy; assay: Effect on carbon tetrachloride-induced rat chronic hepatopathy; assay type: in vivo; settings: 3 mg/kg oral once a day for 8 weeks starting 5 weeks after carbon tetrachloride, liver taken at 12 weeks
# Procedure: Carbon tetrachloride (1.5 mg/kg) was repeatedly given to rats by subctaneous administration twice a week for 12 weeks to induce impairment. The liver was taken out 12 weeks after inducing, the effect on hepatic fibrogenesis was evaluated using the hepatic […] content as the indication. The aqueous solution of the subject compound in concentration of 3 mg/kg was repeatedly given by oral administeration once a day for 8 weeks, initially administered 5 weeks after the administration of carbon tetrachloride.
# [5] = Toxicity (LD50, intravenous, male mice); settings: mouse, in vivo, intravenously administered to male mice
# Description: Extremely low toxicity has been confirmed in each of the active ingredients and nontoxic salts and nontoxic acid addition salts thereof encompassed in the present invention. […] Accordingly, any of the active substances encompassed in the present invention can be considered to be adequately safe and suitable for use as pharmaceuticals.
# [6] = test system: bleomycin-induced rat pulmonary fibrosis; assay: Effect on bleomycin-induced rat pulmonary fibrosis; assay type: in vivo; settings: 10 mg/kg oral once a day for 14 days, lungs taken 15 days after bleomycin
# Procedure: Under anesthetization with pentobarbital, bleomycin hydrochloride (0.9 mg/0.3 ml) was given to rats by endotracheal administration to induce impairment. The lungs were taken out 15 days after inducing, the effect on pulmonary fibrogenesis was evaluated using the pulmonary […] content as the indication. The aqueous solution of the subject compound In concentration of 10 mg/kg was repeatedly given by oral administeration once a day for 14 days, initially administered 10 hours after the administration of bleomycin.
# T3 sequence (P00592 23-146): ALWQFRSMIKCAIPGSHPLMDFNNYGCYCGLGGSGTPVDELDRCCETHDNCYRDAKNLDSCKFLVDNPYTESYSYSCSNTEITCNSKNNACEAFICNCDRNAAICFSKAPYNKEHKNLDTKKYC
SMILES,IC50 [2] [µM],also measured
"CCOC(=O)C1CCCCN1C(=O)/C=C/c1ccc(C(=O)Oc2ccc(NC(=N)N)cc2)cc1 (stereo not shown) [Acetate of compound 7, p-(p-Guanidinophenoxycarbonyl)cinnamic Acid N-(2-ethoxcarbonyl)piperidlnylamide acetate]",–,IC50 [1]: 0.18 µM
"CCOC(=O)[C@@H]1CCCN1C(=O)/C=C/c1ccc(C(=O)Oc2ccc(NC(=N)N)cc2)cc1 [Acetate of compound 10, p-(p-Guanidinophenoxycarbonyl)cinnamic Acid N-(2-(S)-ethoxycarbonyl)pyrrolidinylamide Acetate]",–,IC50 [1]: 0.18 µM
"CCCCCCN(CC(=O)OCC)C(=O)/C(C)=C/c1ccc(C(=O)Oc2ccc(C(=N)N)cc2)cc1 [Acetate of compound 22, p-(p-amidlnophenoxycarbonyl)-α-methylcinnamic acid N-ethoxycarbonylmethyl-N-hexylamide]",0.00024,–
"CCOC(=O)CN(C(=O)/C=C/c1ccc(C(=O)Oc2ccc(NC(=N)N)cc2)cc1)c1ccccc1 [Hydrochloride of compound 5, p-(p-Guanidinophenoxycarbonyl)cinnamic Acid N-phenyl-N-ethoxycarbonylmethylamide Hydrochloride]",–,IC50 [3]: 8 µM
"CCOC(=O)CN(C(=O)/C(C)=C/c1ccc(C(=O)Oc2ccc(NC(=N)N)cc2)cc1)c1ccccc1 [Hydrochloride of compound 6, p-(p-Guanidinophenoxycarbony) -α-methylcinnamic Acid N-phenyl-N-ethoxycarbonylmethylamide Hydrochloride]",–,IC50 [3]: 5 µM; IC50 [1]: 0.11 µM
"CCOC(=O)CCN(CCCOC)C(=O)/C(C)=C/c1ccc(C(=O)Oc2ccc(C(=N)N)cc2)cc1 [Hydrochloride of compound 25, p-(p-amidinophenoxycarbonyl)-α-methylcinnamic acid N-2-ethoxycarbonylethyl-N-3-methoxypropylamide]",0.00138,–
"CCOC(=O)CN(C(=O)c1ccc(C(=O)Oc2ccc(NC(=N)N)cc2)cc1)c1ccccc1 [Methanesulfonate of compound 14, p-(p-guanidinophenoxycarbonyl)benzoic acid N-phenyl-N-ethoxycarbonylmethylamide]",0.0112,–
"N=C(N)Nc1ccc(OC(=O)c2cccc(S(N)(=O)=O)c2)cc1 [Methanesulfonate of compound 15, m-(p-guanidinophenoxycarbonyl)benzenesulfonamide]",0.192,–
"C=CCN(CC(=O)OCC)C(=O)/C(C)=C/c1ccc(C(=O)Oc2ccc(C(=N)N)cc2)cc1 [Methanesulfonate of compound 16, p-(p-amidinophenoxycarbonyl)-α-methylcinnamic acid N-allyl-N-ethoxycarbonylmethylamide]",0.0014,Amount of hepatic Hydroxypurine [4]: 896.5 ± 686.7 μg/liver; Inhibition ratio (hepatic hydroxypurine) [4]: 58.1%; LD50 [5]: 117 mg/kg
"C=CCN(CC(=O)O)C(=O)/C(C)=C/c1ccc(C(=O)Oc2ccc(C(=N)N)cc2)cc1 [Methanesulfonate of compound 17, p-(p-amidinophenoxycarbonyl)-α-methylcinnamic acid N-allyl-N-carboxylmethylamide]",0.0126,Amount of pulmonary Hydroxypurine [6]: 3.774 ± 0.504 μg/lung; Inhibition ratio (pulmonary hydroxypurine) [6]: 40.6%

# Now from value to compound, other results behind:
IC50 [2] [µM],SMILES,also measured
0.005,"C=CCN(CC(=O)OCC)C(=O)/C(C)=C/c1ccc(C(=O)Oc2ccc(NC(=N)N)cc2)cc1 [Acetate of compound 13, p-(p-Guanidinophenoxycarbonyl)-α-methylcinnamic Acid N-allyl-N-ethoxycarbonylmethylamide Acetate]",IC50 [1]: 0.16 µM
0.00239,"C#CCN(CC(=O)OCC)C(=O)/C(C)=C/c1ccc(C(=O)Oc2ccc(C(=N)N)cc2)cc1 [Acetate of compound 18, p-(p-amidinophenoxycarbonyl)-α-methylcinnamic acid N-propargyl-N-ethoxycarbonylmethylamide]",–
0.00046,"C=CCN(CC(=O)OCC)C(=O)/C(C)=C/c1ccc(C(=O)Oc2ccc(C(=N)N)cc2C(=O)OC)cc1 [Acetate of compound 23, p-(4-amidino-2-methoxycarbonylphenoxycarbonyl)-α-methylcinnamic acid N-allyl-N-ethoxycarbonylmethylamide]",–
0.00114,CCOC(=O)CC(CC(=O)OCC)N(C(=O)/C(C)=C/c1ccc(C(=O)Oc2ccc(C(=N)N)cc2)cc1)C1CCCCC1 [Acetate of compound 24],–
0.00021,"N=C(N)c1ccc(OC(=O)c2ccc(/C=C/C(=O)N3CCN(Cc4ccccc4)CC3)cc2)cc1 [Hydrochloride of compound 19-2, p-(p-amidinophenoxycarbonyl)cinnamic acid N-(4-phenyl-methyl)piperadinylamide]",–
0.03,"CCOC(=O)c1ccc(OC(=O)CCCCCNC(=N)N)cc1 [Methanesulfonate of compound 1, p-ethoxycarbonylphenyl 6-guanidinohexanoate]",–
0.00433,"CN(C)C(=O)COC(=O)Cc1ccc(OC(=O)c2ccc(NC(=N)N)cc2)cc1 [Methanesulfonate of compound 2, N,N-ddimethylcarbamoylmethyl p-(p-guanidinobenzoyloxy)phenylacetate]",–
0.0529,"N=C(N)Nc1ccc(C(=O)Oc2ccc(CC(=O)O)cc2)cc1 [Methanesulfonate of compound 3, p-(p-guanidinobenzoyloxy)phenylacetic acid]",–

# Source: patent US6388122B1, “Tryptase inhibitor and novel guanidino derivatives” (Ono Pharmaceutical Co., Ltd., priority 1996, dated 2002)
